Usually Kd stands for a measure of binding affinity in units of concentration. A higher Kd goes with lower affinity. As usually defined, the IC50 is the concentration at which inhibition is half-maximal. What is called Km is the concentration of substrate that gives half-maximal velocity.

Results on two molecules are retold here after publication doi:10.1101/2025.11.12.687946v2 (biorxiv, 2025).

Data set [1] deals with T1, PaSuhB (Pseudomonas aeruginosa, UniProt Q9HXI4).
T1 sequence (Q9HXI4 1-271): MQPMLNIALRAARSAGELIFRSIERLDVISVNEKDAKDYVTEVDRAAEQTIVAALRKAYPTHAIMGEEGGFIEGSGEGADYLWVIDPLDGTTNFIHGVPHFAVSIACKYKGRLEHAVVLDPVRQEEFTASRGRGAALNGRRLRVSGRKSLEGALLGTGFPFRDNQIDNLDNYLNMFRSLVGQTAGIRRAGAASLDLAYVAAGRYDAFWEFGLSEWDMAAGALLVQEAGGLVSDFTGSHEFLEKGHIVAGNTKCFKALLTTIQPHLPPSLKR
In words: biochemical.

Data set [2] deals with T1, PaSuhB. Put plainly: biochemical. The source holds these as a separate data set.
Substrate in data set [3]: O=P(O)(O)O[C@@H]1[C@H](O)[C@H](O)[C@@H](O)[C@H](O)[C@H]1O
In words: purified protein. The settings on record: Mg2+, pH 8.0, 37 °C, no inhibitor.

In the case of `O=C(O)c1cc(O)c(O)c(O)c1` [GDE, 3,4,5-trihydroxybenzoic acid], binding in data set [1] was put at a Kd of 8.71 µM. Also, the IC50 in data set [2] is roughly 1340 µM.

B1: PaSuhB (Pseudomonas aeruginosa PAO1) (protein)
chain: MQPMLNIALRAARSAGELIFRSIERLDVISVNEKDAKDYVTEVDRAAEQTIVAALRKAYPTHAIMGEEGGFIEGSGEGADYLWVIDPLDGTTNFIHGVPHFAVSIACKYKGRLEHAVVLDPVRQEEFTASRGRGAALNGRRLRVSGRKSLEGALLGTGFPFRDNQIDNLDNYLNMFRSLVGQTAGIRRAGAASLDLAYVAAGRYDAFWEFGLSEWDMAAGALLVQEAGGLVSDFTGSHEFLEKGHIVAGNTKCFKALLTTIQPHLPPSLKR
With B1, the Km in data set [3] is 43.82 µM.
